Measured values as given in US11505558B1, “Antiviral heterocyclic compounds” (Enanta Pharmaceuticals, Inc., priority 2019, dated 2022).

Legend:
[1] = system: genotype A, "Long" strain RSV; assay: RSV-A assay (CPE, ATPlite readout in Hep-2 cells); format: cell-based; settings: human respiratory syncytial virus, HEp-2, Hep-2 cells, genotype A "Long" strain RSV, MOI 0.1; read-out: Human RSV-A (“Long” strain) EC50
Outline: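 Protection from RSV-induced cytopathic effect, measured as ATPlite luminescence after 5 days, gave EC50 values. Assay used genotype A Long strain at MOI 0.1 on Hep-2 cells seeded at 8,000/well in DMEM growth media with 10% FBS; compounds tested as 2-fold dilutions in duplicate.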

[2] = system: recombinant HMPV CAN97-83 (MPV-GFP1); assay: HMPV antiviral assay (MPV-GFP1 eGFP fluorescence in Vero E6 cells); format: cell-based; settings: human metapneumovirus, Vero C1008, 120 h, read-out: HMPV EC50
Outline: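 Vero E6 cells in serum-free OptiMEM with 0.5 μg/mL TPCK-trypsin infected with eGFP-expressing HMPV CAN97-83 (MPV-GFP1) at MOI 0.05. 8-point […] ½-step dilutions from 8 or 2 μM, 0.5% DMSO, 5 days at 32 °C. eGFP fluorescence normalized to infected untreated wells; EC50 from four-parameter logistic fit.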

| SMILES | EC50 [1] [µM] | EC50 [2] [µM] |
| --- | --- | --- |
| C[C@]1(C(N)=O)COc2c1cc([C@@](O)(CNC(=O)c1cc(OCC(N)=O)c3ncccc3c1)C(F)(F)F)nc2-c1ccc(F)cc1 [Example 364] | < 0.2 | > 0.5 |
| Cc1cnc2c(OCC(N)=O)cc(C(=O)NC[C@](O)(c3cc4c(c(-c5ccc(F)cc5)n3)OC[C@]4(C)C(N)=O)C(F)(F)F)cc2c1 [Example 366] | < 0.2 | > 0.5 |
| CN(C)C(=O)COc1cc(C(=O)NC[C@](O)(c2cc3c(c(-c4ccc(F)cc4)n2)OC[C@]3(C)C(N)=O)C(F)(F)F)cc2cccnc12 [Example 373] | < 0.2 | > 0.5 |
| CCCNC(=O)COc1cc(C(=O)NC[C@](O)(c2cc3c(c(-c4ccc(F)cc4)n2)OC[C@]3(C)C(N)=O)C(F)(F)F)cc2cccnc12 [Example 374] | < 0.2 | < 0.5 |
| CC(C)(Oc1cc(C(=O)NC[C@](O)(c2cc3c(c(-c4ccc(F)cc4)n2)OC[C@]3(C)C(N)=O)C(F)(F)F)cc2cccnc12)C(N)=O [Example 380] | < 0.2 | > 0.5 |
| C[C@]1(C(N)=O)COc2c1cc([C@@](O)(CNC(=O)c1cc(NCC(N)=O)c3ncccc3c1)C(F)(F)F)nc2-c1ccc(F)cc1 [Example 384] | < 0.2 | > 0.5 |
| C[C@]1(C(N)=O)COc2c1cc([C@@](O)(CNC(=O)c1cc(Oc3cnccn3)c3ncccc3c1)C(F)(F)F)nc2-c1ccc(F)cc1 [Example 387] | < 0.2 | > 0.5 |
| C[C@]1(C(N)=O)COc2c1cc([C@@](O)(CNC(=O)c1cc(Oc3ccncc3)c3ncccc3c1)C(F)(F)F)nc2-c1ccc(F)cc1 [Example 388] | < 0.2 | > 0.5 |
| C[C@]1(C(N)=O)COc2c1cc([C@@](O)(CNC(=O)c1cc(OCc3ncco3)c3ncccc3c1)C(F)(F)F)nc2-c1ccc(F)cc1 [Example 390] | < 0.2 | > 0.5 |
| CC(=O)Nc1cc(C(=O)NC[C@](O)(c2cc3c(c(-c4ccc(F)cc4)n2)OC[C@]3(C)C(N)=O)C(F)(F)F)cc2cccnc12 [Example 393] | < 0.2 | < 0.5 |
| Cc1nc(C(=O)Nc2cc(C(=O)NC[C@](O)(c3cc4c(c(-c5ccc(F)cc5)n3)OC[C@]4(C)C(N)=O)C(F)(F)F)cc3cccnc23)co1 [Example 397] | < 0.2 | > 0.5 |
| C[C@]1(C(N)=O)COc2c1cc([C@@](O)(CNC(=O)c1cc(NC(=O)c3ncco3)c3ncccc3c1)C(F)(F)F)nc2-c1ccc(F)cc1 [Example 398] | < 0.2 | < 0.5 |
| C[C@]1(C(N)=O)COc2c1cc([C@@](O)(CNC(=O)c1cc(OC3CC3)c3nc(CO)ccc3c1)C(F)(F)F)nc2-c1ccc(F)cc1 [Example 406] | < 0.2 | > 0.5 |
| C[C@]1(C(N)=O)COc2c1cc([C@@](O)(CNC(=O)c1cc(NC(N)=O)c3ncccc3c1)C(F)(F)F)nc2-c1ccc(F)cc1 [Example 408] | < 0.2 | > 0.5 |
| CC1(NC(=O)Nc2cc(C(=O)NC[C@](O)(c3cc4c(c(-c5ccc(F)cc5)n3)OC[C@]4(C)C(N)=O)C(F)(F)F)cc3cccnc23)CC1 [Example 411] | < 0.2 | < 0.5 |
| Cc1cnc2c(NC(=O)C3CC3)cc(C(=O)NC[C@](O)(c3cc4c(c(-c5ccc(F)cc5)n3)OC[C@]4(C)C(N)=O)C(F)(F)F)cc2c1 [Example 416] | < 0.2 | > 0.5 |
| Cc1cnc2c(NC(=O)NC3CC3)cc(C(=O)NC[C@](O)(c3cc4c(c(-c5ccc(F)cc5)n3)OC[C@]4(C)C(N)=O)C(F)(F)F)cc2c1 [Example 417] | < 0.2 | < 0.5 |
| Cc1cnc2c(NC(=O)c3coc(C)n3)cc(C(=O)NC[C@](O)(c3cc4c(c(-c5ccc(F)cc5)n3)OC[C@]4(C)C(N)=O)C(F)(F)F)cc2c1 [Example 418] | < 0.2 | < 0.5 |
| Cc1nc2ccc(C(=O)NC[C@](O)(c3cc4c(c(-c5ccc(F)cc5)n3)OC[C@]4(C)C(N)=O)C(F)(F)F)cc2o1 [Example 424] | < 0.2 | < 0.5 |
| C[C@]1(C(N)=O)COc2c1cc([C@@](O)(CNC(=O)c1ccc3nc(N)sc3c1)C(F)(F)F)nc2-c1ccc(F)cc1 [Example 429] | < 0.2 | > 0.5 |
| Cc1nc2ccc(C(=O)NC[C@](O)(c3cc4c(c(-c5ccc(F)cc5)n3)OC[C@]4(C)C(N)=O)C(F)(F)F)cc2s1 [Example 430] | < 0.2 | < 0.5 |
| COc1cc(C(=O)NC[C@](O)(c2cc3c(c(-c4ccc(F)cc4)n2)OC[C@]3(C)C(N)=O)C(F)(F)F)cc2sc(N)nc12 [Example 431] | < 0.2 | < 0.5 |
| COc1cc(C(=O)NC[C@](O)(c2cc3c(c(-c4ccc(F)c(Cl)c4)n2)OC[C@]3(C)C(N)=O)C(F)(F)F)cc2sc(N)nc12 [Example 433] | < 0.2 | < 0.5 |

| SMILES | EC50 [1] [µM] | EC50 [2] [µM] |
| --- | --- | --- |
| COc1nc2c(OC(C)C)cc(C(=O)NC[C@](O)(c3cc4c(c(-c5ccc(F)cc5)n3)OC[C@]4(C)C(N)=O)C(F)(F)F)cc2s1 [Example 444] | < 0.2 | > 0.5 |
| COc1nc2c(OC)cc(C(=O)NC[C@](O)(c3cc4c(c(-c5ccc(F)cc5)n3)OC[C@]4(C)C(N)=O)C(F)(F)F)cc2s1 [Example 445] | < 0.2 | < 0.5 |
| COc1cc(C(=O)NC[C@](O)(c2cc3c(c(-c4ccc(F)cc4)n2)OC[C@]3(C)C(=O)NC2(C#N)CC2)C(F)(F)F)cc2cccnc12 [Example 451] | < 0.2 | < 0.5 |
| CC(C)(O)[C@H](F)CNC(=O)[C@@]1(C)COc2c1cc([C@@](O)(CNC(=O)c1cc(OC3CC3)c3ncccc3c1)C(F)(F)F)nc2-c1ccc(F)cc1 [Example 459] | < 0.2 | > 0.5 |
| C[C@]1(C(=O)NCCOC(N)=O)COc2c1cc([C@@](O)(CNC(=O)c1cc(OC3CC3)c3ncccc3c1)C(F)(F)F)nc2-c1ccc(F)cc1 [Example 460] | < 0.2 | > 0.5 |
| C[C@]1(C(=O)NCCCN)COc2c1cc([C@@](O)(CNC(=O)c1cc(OC3CC3)c3ncccc3c1)C(F)(F)F)nc2-c1ccc(F)cc1 [Example 464] | < 0.2 | > 0.5 |
| C[C@]1(C(=O)NCCO)COc2c1cc([C@@](O)(CNC(=O)c1cc(OC3CC3)c3ncccc3c1)C(F)(F)F)nc2-c1ccc(F)cc1 [Example 465] | < 0.2 | < 0.5 |
| C[C@]1(C(=O)N[C@H]2C[C@@H](O)C2)COc2c1cc([C@@](O)(CNC(=O)c1cc(OC3CC3)c3ncccc3c1)C(F)(F)F)nc2-c1ccc(F)cc1 [Example 466] | < 0.2 | < 0.5 |
| C[C@]1(C(=O)NC2CC(O)C2)COc2c1cc([C@@](O)(CNC(=O)c1cc(OC3CC3)c3ncccc3c1)C(F)(F)F)nc2-c1ccc(F)cc1 (some centres unmarked) [Example 467] | < 0.2 | < 0.5 |
| CNC(=O)CNC(=O)[C@@]1(C)COc2c1cc([C@@](O)(CNC(=O)c1cc(OC3CC3)c3ncccc3c1)C(F)(F)F)nc2-c1ccc(F)cc1 [Example 473] | < 0.2 | > 0.5 |
| C[C@]1(C(=O)NCc2ccco2)COc2c1cc([C@@](O)(CNC(=O)c1cc(OC3CC3)c3ncccc3c1)C(F)(F)F)nc2-c1ccc(F)cc1 [Example 475] | < 0.2 | < 0.5 |
| C[C@]1(C(=O)NCCC(N)=O)COc2c1cc([C@@](O)(CNC(=O)c1cc(OC3CC3)c3ncccc3c1)C(F)(F)F)nc2-c1ccc(F)cc1 [Example 477] | < 0.2 | > 0.5 |
| C[C@]1(C(=O)NCCCNC(N)=O)COc2c1cc([C@@](O)(CNC(=O)c1cc(OC3CC3)c3ncccc3c1)C(F)(F)F)nc2-c1ccc(F)cc1 [Example 479] | < 0.2 | > 0.5 |
| CC(C)(CO)NC(=O)[C@@]1(C)COc2c1cc([C@@](O)(CNC(=O)c1cc(OC3CC3)c3ncccc3c1)C(F)(F)F)nc2-c1ccc(F)cc1 [Example 482] | < 0.2 | > 0.5 |
| CC(C)(O)CNC(=O)[C@@]1(C)COc2c1cc([C@@](O)(CNC(=O)c1cc(OC3CC3)c3ncccc3c1)C(F)(F)F)nc2-c1ccc(F)cc1 [Example 484] | < 0.2 | < 0.5 |
| C[C@]1(C(=O)NCCCO)COc2c1cc([C@@](O)(CNC(=O)c1cc(OC3CC3)c3ncccc3c1)C(F)(F)F)nc2-c1ccc(F)cc1 [Example 485] | < 0.2 | < 0.5 |
| C[C@]1(C(=O)NC[C@@H](O)CO)COc2c1cc([C@@](O)(CNC(=O)c1cc(OC3CC3)c3ncccc3c1)C(F)(F)F)nc2-c1ccc(F)cc1 [Example 492] | < 0.2 | > 0.5 |
| C[C@]1(C(=O)NC[C@H](O)CO)COc2c1cc([C@@](O)(CNC(=O)c1cc(OC3CC3)c3ncccc3c1)C(F)(F)F)nc2-c1ccc(F)cc1 [Example 493] | < 0.2 | > 0.5 |
| CC(C)(O)CNC(=O)[C@@]1(C)COc2c1cc([C@@](O)(CNC(=O)c1ccc3nc(N)sc3c1)C(F)(F)F)nc2-c1ccc(F)cc1 [Example 497] | < 0.2 | > 0.5 |
| COc1cc(C(=O)NC[C@](O)(c2cc3c(c(-c4ccc(F)cc4)n2)OC[C@]3(C)C(N)=O)C(F)(F)F)cc2c1OCCC2 [Example 508] | > 0.2 | < 0.5 |
| COc1cc(C(=O)NC[C@](O)(c2cc3c(c(-c4ccc(F)cc4)n2)OC[C@]3(C)C(N)=O)C(F)(F)F)cc2cc(F)cnc12 [Example 518] | < 0.2 | > 0.5 |
| COc1cc(C(=O)NC[C@](O)(c2cc3c(c(-c4ccc(F)cc4)n2)OC[C@]3(C)C(N)=O)C(F)(F)F)cc2cc(C3CC3)cnc12 [Example 519] | < 0.2 | < 0.5 |
| COc1cc(C(=O)NC[C@](O)(c2cc3c(c(-c4ccc(F)cc4)n2)OC[C@]3(C)C(N)=O)C(F)(F)F)cc2cc(Cl)cnc12 [Example 520] | < 0.2 | < 0.5 |
